The record followed here is patent US7750021B2, “Immunosuppressant compounds and compositions” (IRM LLC, priority 2003, dated 2010).

Assay [1] addresses T1, human EDG-1 (Homo sapiens, UniProt P21453).
T1 construct: c-myc (N); expressed in transfected cells
Put plainly: EDG-1 (S1P1) GTP [γ-35S] binding assay. The format is biochemical. The note with it: GTP [γ-35S] binding to membranes from CHO cells expressing human EDG-1. Here is the method:
(§1) A. In Vitro: GPCR Activation Assay Measuring GTP [γ-^35S] Binding to Membranes Prepared from CHO Cells Expressing Human EDG Receptors
EDG-1 (S1P1) GTP [γ-^35S] binding assay: Homogenized membranes are prepared from CHO cell clones stably expressing a human EDG-1 N-terminal c-myc tag. Cells are grown in suspension in two 850 cm^2 roller bottles for three or fours days before harvesting. The cells are centrifuged down, washed once with cold PBS, and resuspended in ≦20 ml of Buffer A (20 mM HEPES, pH 7.4, 10 mM EDTA, EDTA-free complete protease inhibitor cocktail [1 tablet/25 ml]). The cell suspension is homogenized on ice, using a Polytron homogenizer at 30000 rpm at three intervals of 15 seconds each. The homogenate is first centrifuged at 2000 rpm on a tabletop low speed centrifuge for 10 minutes. The supernatant, after passing through a cell strainer, is then re-centrifuged at 50,000×g for 25 minutes at 4° C. The pellet is resuspended into buffer B (15% glycerol, 20 mM HEPES, pH 7.4, 0.1 mM EDTA, EDTA-free complete protease inhibitor cocktail [1 tablet/10 ml]). Protein concentration of the prep is determined using the BCA Protein Assay kit (Pierce) using BSA as standard. The membranes are aliquoted and kept frozen at −80° C.
Solutions of test compounds ranging from 10 mM to 0.01 nM are prepared in DMSO. S1P is diluted in 4% BSA solution as positive controls. […]

The subject of assay [2] is blood lymphocytes. Nature of the assay: Measurement of circulating lymphocytes (blood lymphocyte depletion). Type of assay: in vivo, Mice (C57b1/6 male). To be noted: Mus musculus, po, mice, orally by gavage, blood collected 6 and 24 hours after administration, read-out: ED50, effective dose required displaying 50% of blood lymphocyte depletion. Here is the method:
Measurement of circulating lymphocytes: Compounds are dissolved in DMSO and diluted to obtain a final concentration of 4% DMSO (v/v, final concentration) and then further diluted in a constant volume of Tween80 25%/H2O, v/v. Tween80 25%/H2O (200 μl), 4% DMSO, and FTY720 (10 μg) are included as negative and positive controls, respectively. Mice (C57b1/6 male, 6-10 week-old) are administered 250-300 μL of compound solution orally by gavages under short isoflurane anesthesia.
Blood is collected from the retro-orbital sinus 6 and 24 hours after drug administration under short isoflurane anesthesia. Whole blood samples are subjected to hematology analysis. Peripheral lymphocyte counts are determined using an automated analyzer. Subpopulations of peripheral blood lymphocytes are stained by fluorochrome-conjugated specific antibodies and analyzed using a fluorescent activating cell sorter (Facscalibur). Two mice are used to assess the lymphocyte depletion activity of each compound screened. The result is an ED50, which is defined as the effective dose required displaying 50% of blood lymphocyte depletion.

For assay [3], the system named is EDG-3, EDG-5, EDG-6 and EDG-8. Put plainly: EDG-3, -5, -6 and -8 GTP [γ-35S] binding assays (selectivity versus EDG-1). Type of assay: biochemical, human. Here is the method:
as §1
Solutions of test compounds ranging from 10 mM to 0.01 nM are prepared in DMSO. S1P is diluted in 4% BSA solution as positive controls. The desired amount of membrane prep is diluted with ice-cold assay buffer (20 mM HEPES, pH 7.4, 100 mM NaCl, 10 mM MgCl2, 0.1% Fatty acid-free BSA, 5 μM GDP) and vortexed well. 2 μl or less of compound is distributed into each well of a round-bottom 96-well polystyrene assay plate, followed by addition of 100 μl of diluted membranes (3-10 μg/well) and kept on ice until the addition of hot GTPγS. [^35S]-GTPγS is diluted 1:1000 (v/v) with cold assay buffer and 100 μl is added into each well. The reaction is carried out at room temperature for 90 minutes before the membranes are harvested onto Perkin-Elmer Unifilter® GF/B-96 filter plate using a Packard Filtermate Harvester. After several washes with wash buffer (20 mM HEPES, pH 7.4, 100 mM NaCl, 10 mM MgCl2), and a rinse with 95% ethanol, the filter is dried in a 37° C. oven for 30 minutes. MicroScint-20 is added and the plate sealed for scintillation counting on TopCount. EC50 values are obtained by fitting the GTP [γ-^35S] binding curves (raw data) with the dose response curve-fitting tool of GraphPad Prism. […]

T1 sequence (P21453 whole entry): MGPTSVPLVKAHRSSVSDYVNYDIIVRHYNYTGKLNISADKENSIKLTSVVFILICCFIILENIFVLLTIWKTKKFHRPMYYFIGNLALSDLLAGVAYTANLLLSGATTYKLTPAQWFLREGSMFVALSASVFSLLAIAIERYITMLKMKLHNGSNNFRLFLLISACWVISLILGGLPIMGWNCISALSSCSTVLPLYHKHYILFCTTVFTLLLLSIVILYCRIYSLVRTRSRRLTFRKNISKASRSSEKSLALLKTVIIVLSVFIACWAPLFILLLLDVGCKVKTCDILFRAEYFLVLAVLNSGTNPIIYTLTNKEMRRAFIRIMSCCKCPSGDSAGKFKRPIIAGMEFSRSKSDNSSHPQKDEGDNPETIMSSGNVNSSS

A word on the EC50: it is the concentration giving half of the maximal effect. A high value points to a less potent agent. In general, ED50 refers to the dose that gives a 50% effect, or the effect in half of the subjects. On to `O=C(O)CCNCc1ccc2sc(-c3ccc(-c4ccccc4)c(C(F)(F)F)c3)cc2c1` [Example 1, 3-{[2-(2-Trifluoromethyl-biphenyl-4-yl)-benzo[b]thiophen-5-ylmethyl]-amino}-propionic acid], for which the midpoint of the response in assay [1], the EC50, lay at 0.6 nM. Besides, the ED50 in assay [2] is 0.2 mg/kg. Moreover, the “selective for EDG-1 compared to one or more of the other receptors including EDG-3, EDG-5, EDG-6 and EDG-8” value in assay [3] is “at least 1000 fold”.
